These results are taken from patent publication US11147801B2, “Methods of use for trisubstituted benzotriazole derivatives as dihydroorotate oxygenase inhibitors” (Aurigene Discovery Technologies Limited, priority 2017, dated 2021).

A word on the IC50: it is the concentration at which inhibition is half-maximal. A word on the inhibition: it is the relative decrease from the control value, in per cent. As a reminder, the TGI is how far tumour growth fell short of that in controls. Lower therefore signals little slowing of growth.

One data set concerns the target DHODH (Homo sapiens (Human), UniProt Q02127). Nature of the data set: DHODH activity assay (coupled enzyme assay, DCIP reduction). Format: biochemical. The following applies: read-out: DHODH inhibition activity, IC50 group. How it is done: The DHODH activity assay is a coupled enzyme assay in which oxidation of DHO and subsequent reduction of ubiquinone are stoichiometrically equivalent to the reduction of DCIP ([…]). The reduction of DCIP is accompanied by a loss of absorbance at 610 nm.
Buffer Preparation: 50 mM tris HCl, 150 mM KCl, and pH 8.0, 0.8% triton.
L-Dihydroorotic acid stock solution of 20 mM in buffer.
2, 6-Dichloroindophenol Sodium salt hydrate stock solution of 20 mM in buffer.
Decylubiquinone stock solution of 20 mM in buffer.
5 μL of Dimethyl sulfoxide or a compound of formula (I) in DMSO solution was added to the wells of a 96 well plate. Compounds of formula (I) were measured at 10 μM.
Protein along with buffer was added, so that the total volume including the DMSO was 87 μL. Compound and protein were incubated for half an hour at room temperature after mixing. 5 μL of 20 mM solution of L-Dihydroorotic acid, 5 μL of 2 mM solution of Decylubiquinone and 3 μL of 2 mM solution of 2, 6-Dichloroindophenol sodium salt hydrate were added to the above solution (total assay volume 100 μL). The mixture was stirred for 2 min and absorbance was recorded at every 10 min at 610 nanometers.
Percent inhibition is calculated as follows: […]
A 2 mM DMSO stock solution of the selected trisubstituted benzoimidazole and benzotriazole derivatives of formula (I) of the present invention to be examined was prepared. Subsequent ⅓rd dilutions were made.
5 μL of each stock of compound of formula (I) was used for each 100 μL assay. Therefore, 5 μL of the 2 mM stock provided 100 μL of 100 μM solution of compound of formula (I), when made up with buffer, protein and substrate. See also: Ulrich et al. (2001) Eur. J. Biochem.268, 1861-1868.

A further data set deals with Ramos cells. Briefly: Ramos proliferation assay (XTT). The conditions noted are these: Homo sapiens, 72 hrs. Format: cell-based. From the text:
Cell proliferation assay is a sensitive method for quantification of viable cells in cytotoxicity or proliferation assay. The XTT (2,3-bis[2-Methoxy-4-nitro-5-sulfophenyl]-2 H-tetrazolium-5-carboxyanilide inner salt) system is a means of measuring the activity of living cells via mitochondrial dehydrogenases. Mitochondrial dehydrogenases of viable cells cleave the tetrazolium ring of XTT, yielding orange formazon crystals which are soluble in aqueous solutions. The XTT solution is potentiated by the addition of an electron coupling agent, phenazine methosulphate (PMS) to the reaction. The resulting orange colour is spectrophotometrically measured at 450 nm. An increase or decrease in cell numbers results in a concomitant change in the amount of formazon formed, indicating the degree of cytotoxicity caused by the test material.
Dissolve 17.7 g IMDM (Iscove's Modified Dulbecco's Medium) powder, 1.5 g sodium bicarbonate pH 7.2-7.4 in 1 L MiliQ water, add 1% Pencilin/ Streptomycin and 10% FBS.
Dissolve 10.6 g Ham's F12 powder, 1.5 g sodium bicarbonate pH 7.2-7.4 in 1 L MiliQ water, add 1% Penicillin/Streptomycin. DMSO used as vehicle.
Ramos cells were re-suspended to a density of 1×10^5 cells/ ml in complete IMDM medium. 95 μL of this cell suspension was added to the 96-well plate to seed ˜10,000 cells per well. The plates were incubated at 37° C. under a humidified atmosphere of 5% CO2 for ˜1 hour before compound addition.
Test compounds (Refer to Table 1) were dissolved in 100% DMSO to generate a 2/6/10/20 mM stock solution. A 200× concentration of the required final concentrations was prepared in DMSO. 10 μL of each concentration (200×) was then diluted in 90 μL of serum-free Ham's F12 medium to get an intermediate concentration of 20× in medium. The DMSO concentration in this step is 10% (Intermediate dilution). 5 μL of each intermediate dilution was then added in triplicates in the previously seeded 96-well plate. The final DMSO concentration was 0.5% in the experimental wells. Cells treated with 0.5% DMSO served as positive control. 100 μL, of complete IMDM medium served as media blank for data analysis. 200 μL, of 1× PBS was added in all corner wells of the assay plate. Plates were then incubated for 72 hrs in an incubator with 5% CO2 at 37° C.
On termination day, 100 μl of XTT solution (1 mg/ml XTT supplemented with 25 μM PMS in Ham's F12 medium) was added to each well. Plates were incubated for 2 hrs. The amount of formazon produced was determined by reading the absorbance of the plate using VICTOR X5 multilabel plate reader at wavelength of 450 nm. The IC50 values were determined as concentrations that reduced cell viability by 50% and the curve was plotted with GraphPad Prism 6.0.
Percent (%) Inhibition was calculated by normalizing DMSO control values to 100% using the formula: % Inhibition=[…](Abs450test compound−blank)/(Abs450positive control−blank)*100
Test compound contains cells, test compound, IMDM medium and 0.5% DMSO
Positive control contains cells, IMDM medium and 0.5% DMSO
Blank contains IMDM medium
(In general: Tetrazolium assays rely on reduction of a dye to a coloured formazan, in cell work by metabolically active cells.)

In the next data set the test system is MOLM-13 tumors. Nature of the data set: MOLM-13 acute myeloid leukemia xenograft model. Format: in vivo. How it is done:
In vivo efficacy studies with Compound 1 were performed to assess the in vitro to in vivo translation of effects on blockade of DHODH and tumor cell growth inhibition. 1×10^6 MOLM-13 cells were implanted subcutaneously into CB17 SCID mice. Mice (n=15/group) were treated with vehicle or Compound 1 at 100 mg/kg BID PO once tumors reached an average of ˜150 mm^3. At end of the study, tissues were collected at the indicated timepoints post-last dose for pharmacokinetic (PK) and pathway biomarker analyses.

A further data set has as its system DLBCL_1 tumor. Briefly: Patient-derived DLBCL xenograft model DLBCL_1 (triple hit). In kind it is in vivo, CB17 SCID mice. The following applies: 100 mg/kg BID PO. How it is done: (§1) A screen was next performed using a small number of mice/group to assess efficacy of Compound 1 in AML and DLBCL patient-derived xenograft models. Tumor-bearing mice (n=3/group) were treated with vehicle or Compound 1 at 100 mg/kg BID PO.
On the technique in general: In xenograft studies the graft and the host belong to different species.

The test system of data set [1] is AML and DLBCL patient-derived xenograft models. Briefly: AML and DLBCL patient-derived xenograft models (all models). Format: in vivo, CB17 SCID mice. The following applies: all five AML and two DLBCL patient-derived models, 100 mg/kg BID PO. How it is done: as §1
Another data set concerns DU4475. Nature of the data set: Triple negative breast cancer cell line panel, 96 hours. The following applies: DU4475, 96 hours. In kind it is cell-based, human. On the procedure:
FIG. 10 is a curve showing the relative growth rate of the DU4475 triple negative breast cancer line treated with various concentrations of Compound 1 for 96 hours.
A panel of triple negative cancer cell lines (TNBC) were screened to evaluate whether a subset of TNBC could potentially benefit from treatment with compound 1 as a single agent.

Chain of DHODH (Q02127 whole entry): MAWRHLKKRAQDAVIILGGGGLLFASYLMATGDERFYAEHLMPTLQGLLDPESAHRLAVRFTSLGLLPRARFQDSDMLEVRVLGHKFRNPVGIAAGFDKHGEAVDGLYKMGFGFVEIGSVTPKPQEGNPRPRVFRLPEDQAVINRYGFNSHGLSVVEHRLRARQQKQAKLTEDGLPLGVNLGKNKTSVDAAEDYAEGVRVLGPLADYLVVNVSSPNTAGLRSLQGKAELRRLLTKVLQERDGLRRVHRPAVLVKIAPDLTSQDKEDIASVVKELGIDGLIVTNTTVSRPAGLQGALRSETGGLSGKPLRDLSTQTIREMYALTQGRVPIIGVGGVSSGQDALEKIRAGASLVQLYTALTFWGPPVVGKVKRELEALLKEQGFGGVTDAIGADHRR

Consider `Cc1ccccc1-c1ccc(-c2cc(C(=O)O)c3c(c2)nnn3C)cc1` [Compound 1, 1-methyl-5-(2′-methyl-[1,1′-biphenyl]-4-yl)-1H-benzo[d][1,2,3]triazole-7-carboxylic Acid], for which the IC50 at DHODH was less than 100 nM; in the data set with Ramos cells (XTT), 49 nM. The inhibition at 30 µM in the data set on Ramos cells (30 μM, read-out: Maximum % Inhibition at 30 μM) came out at 107%. The Tolerability entry in the data set with MOLM-13 tumors (100 mg/kg BID PO, CB17 SCID mice) is listed as “well tolerated”. In addition, the “Tumor growth inhibition (TGI)” value in the data set on MOLM-13 tumors (100 mg/kg BID PO, MOLM-13 xenograft, 14 days) is “near complete tumor growth inhibition”. For the same compound, in the data set with MOLM-13 tumors (100 mg/kg BID, MOLM-13 tumors, depending on the timepoint), the “Reduction of tumor uridine pools” value is reported as roughly 60%. For the same compound, in the data set with MOLM-13 tumors (100 mg/kg BID, MOLM-13 tumors, over 12 hrs after last dose, baseline BQL<120 ng/g), the “Tumor levels of dihydroorotate (DHO)” value is on record as “dramatic increase”. Also, the “Pharmacokinetics profile in plasma and tumor” value in the data set with MOLM-13 tumors (100 mg/kg BID, after last dose) is listed as “drop in drug concentrations by 12 hrs”. In the data set with DLBCL_1 tumor, this compound showed a TGI greater than 60%. Also, in data set [1], the Anti-tumor activity entry is “anti-tumor activity of Compound 1 was observed”. Further, the Cell viability/growth result in the data set on DU4475 was “robustly impaired cell viability/growth”.
